Assay results: publication PMC5527310, “Stringent Expression Control of Pathogenic R-body Production in Legume Symbiont Azorhizobium caulinodans” (mBio, 2017)

Target: T1, His6-PraR (Azorhizobium caulinodans, UniProt A8IG10)
T1 construct: full praR ORF, N-terminal His6 tag (pCold I, plasmid pTAC99), expressed in E. coli BLR(DE3), Ni-bead purified
Assay: EMSA, FITC-labelled reb promoter dsDNA probe
Conditions: inhibits PraR binding to reb promoter DNA; 2OG 0.01 to 10 mM; pH 8.0, 5 mM MgCl2, 26 °C; direct 2OG binding to PraR not measured

T1 sequence (A8IG10 entry or part of it): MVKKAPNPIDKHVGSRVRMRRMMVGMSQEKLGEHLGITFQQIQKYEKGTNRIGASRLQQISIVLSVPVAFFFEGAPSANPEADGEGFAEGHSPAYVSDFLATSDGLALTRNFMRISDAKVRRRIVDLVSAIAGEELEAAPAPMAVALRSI

O=C(O)CCC(=O)C(=O)O [2-oxoglutarate]
EMSA, FITC-labelled reb promoter dsDNA probe: binding of PraR to the reb promoter dsDNA probe decreased with increasing 2OG concentration
